Data from ChEMBL document CHEMBL4000200, “Structure-activity relationships of 4-hydroxy-4-biaryl-proline acylsulfonamide tripeptides: A series of potent NS3 protease inhibitors for the treatment of hepatitis C virus” (Bioorg Med Chem Lett, 2017).

Legend:
Heart [1] = test: Cardiotoxicity in Langendorff perfused rabbit heart assessed as heart rate at 10 uM perfused for 10 mins (reference value: -1 +/- 1%); type: toxicity, tissue-based, Oryctolagus cuniculus
Heart [2] = test: Cardiotoxicity in Langendorff perfused rabbit heart assessed as heart rate at 10 uM perfused for 20 mins (reference value: -3 +/- 3%); type: toxicity, tissue-based, Oryctolagus cuniculus
Heart [3] = test: Cardiotoxicity in Langendorff perfused rabbit heart assessed as sinoatrial node recovery time at 10 uM perfused for 10 mins (reference value: 3 +/- 1%); type: toxicity, tissue-based, Oryctolagus cuniculus
Heart [4] = test: Cardiotoxicity in Langendorff perfused rabbit heart assessed as sinoatrial node recovery time at 10 uM perfused for 20 mins (reference value: 4 +/- 5%); type: toxicity, tissue-based, Oryctolagus cuniculus
Heart [5] = test: Cardiotoxicity in Langendorff perfused rabbit heart assessed as coronary flow at 10 uM perfused for 10 mins (reference value: -4 +/- 6%); type: toxicity, tissue-based, Oryctolagus cuniculus
Heart [6] = test: Cardiotoxicity in Langendorff perfused rabbit heart assessed as coronary flow at 10 uM perfused for 20 mins (reference value: -6 +/- 8%); type: toxicity, tissue-based, Oryctolagus cuniculus
[7] = Inhibition of HCV genotype 1a NS3/4A protease; set-up: species or system Hepatitis C virus subtype 1a
[8] = Permeability of the compound at pH 5.5 by PAMPA; type: physicochemical; details: read-out: permeability
[9] = Permeability of the compound at pH 7.4 by PAMPA; type: physicochemical; details: read-out: permeability
[10] = AUC in id dosed rat plasma after 4 hrs; type: ADME, organism-based; set-up: time < 4 hr
[11] = Drug uptake in id dosed rat liver after 4 hrs; type: ADME, organism-based; details: read-out: Drug uptake
Hepatitis C virus = test: Antiviral activity against HCV genotype 1b by cell based replicon assay; type: functional, Hepacivirus hominis
[12] = Oral bioavailability in rat at 15 mg/kg after 24 hrs; type: ADME, organism-based; details: in vivo
[13] = AUC in rat at 15 mg/kg, po after 24 hrs; type: ADME, organism-based; set-up: dose 15 mg/kg, time < 24 hr, route oral; details: in vivo
[14] = Clearance in rat at 5 mg/kg, iv; type: ADME, organism-based; details: in vivo
[15] = Half life in rat at 5 mg/kg, iv; type: ADME, organism-based; details: in vivo
[16] = Drug uptake in rat liver at 15 mg/kg, po after 24 hrs; type: ADME, organism-based; details: read-out: Drug uptake

Row | Compound | IC50 [7] [nM] | EC50 (Hepatitis C virus) [nM] | also measured
1 | C=C[C@@H]1C[C@]1(NC(=O)[C@@H]1C[C@@H](Oc2ncc(OC)c3ccc(Cl)cc23)CN1C(=O)[C@@H](NC(=O)OC(C)(C)C)C(C)(C)C)C(=O)NS(=O)(=O)C1CC1 | – | – | Activity (Heart [1]): 1%; Activity (Heart [2]): -1%; Activity (Heart [3]): -1%; Activity (Heart [4]): 4%; Activity (Heart [5]): -3%; Activity (Heart [6]): -1%
2 | C=C[C@@H]1C[C@]1(NC(=O)[C@@H]1C[C@@H](Oc2nccc3cc(OC)ccc23)CN1C(=O)[C@@H](NC(=O)OC(C)(C)C)C(C)(C)C)C(=O)NS(=O)(=O)C1CC1 | 1 to 2 | – | Papp [8]: 57.4 ×10⁻⁶ cm/s; Papp [9]: 17.8 ×10⁻⁶ cm/s; AUC at 4 h [10]: 10.4 µM·h; concentration at 4 h [11]: 64700 ng/g; Activity (Heart [1]): -13%; Activity (Heart [2]): -32%; Activity (Heart [3]): 69%; Activity (Heart [4]): 360%; Activity (Heart [5]): 12%; Activity (Heart [6]): 10%
3 | C=C[C@@H]1C[C@]1(NC(=O)[C@@H]1C[C@@](O)(c2cccc(C)c2)CN1C(=O)[C@@H](NC(=O)OC(C)(C)C)C(C)(C)C)C(=O)NS(=O)(=O)C1CC1 | 76 | 3270 | –
4 | C=C[C@@H]1C[C@]1(NC(=O)[C@@H]1C[C@@](O)(c2cccc(OC(C)C)c2)CN1C(=O)[C@@H](NC(=O)OC(C)(C)C)C(C)(C)C)C(=O)NS(=O)(=O)C1CC1 | 101 | 6250 | –
5 | C=C[C@@H]1C[C@]1(NC(=O)[C@@H]1C[C@@](O)(c2cc(F)ccc2OC)CN1C(=O)[C@@H](NC(=O)OC(C)(C)C)C(C)(C)C)C(=O)NS(=O)(=O)C1CC1 | 728 | 3940 | –
6 | C=C[C@@H]1C[C@]1(NC(=O)[C@@H]1C[C@@](O)(c2ccc3ccccc3c2)CN1C(=O)[C@@H](NC(=O)OC(C)(C)C)C(C)(C)C)C(=O)NS(=O)(=O)C1CC1 | 26 | 412 | –
7 | C=C[C@@H]1C[C@]1(NC(=O)[C@@H]1C[C@@](O)(c2ccc(OC)cc2)CN1C(=O)[C@@H](NC(=O)OC(C)(C)C)C(C)(C)C)C(=O)NS(=O)(=O)C1CC1 | 105 | 1470 | –
8 | C=C[C@@H]1C[C@]1(NC(=O)[C@@H]1C[C@@](O)(c2ccc(-c3nccs3)cc2)CN1C(=O)[C@@H](NC(=O)OC(C)(C)C)C(C)(C)C)C(=O)NS(=O)(=O)C1CC1 | 2 | 41 | –
9 | C=C[C@@H]1C[C@]1(NC(=O)[C@@H]1C[C@@](O)(c2cccc(C(C)C)c2)CN1C(=O)[C@@H](NC(=O)OC(C)(C)C)C(C)(C)C)C(=O)NS(=O)(=O)C1CC1 | 703 | 8370 | –
10 | C=C[C@@H]1C[C@]1(NC(=O)[C@@H]1C[C@@](O)(c2ccc(F)c(C)c2)CN1C(=O)[C@@H](NC(=O)OC(C)(C)C)C(C)(C)C)C(=O)NS(=O)(=O)C1CC1 | 134 | 7700 | –
11 | C=C[C@@H]1C[C@]1(NC(=O)[C@@H]1CC(=O)CN1C(=O)[C@@H](NC(=O)OC(C)(C)C)C(C)(C)C)C(=O)NS(=O)(=O)C1CC1 | 3900 | 70700 | –
12 | C=C[C@@H]1C[C@]1(NC(=O)[C@@H]1C[C@@](O)(c2cccc(OC)c2)CN1C(=O)[C@@H](NC(=O)OC(C)(C)C)C(C)(C)C)C(=O)NS(=O)(=O)C1CC1 | 52 | 3700 | –
13 | C=C[C@@H]1C[C@]1(NC(=O)[C@@H]1C[C@@](O)(c2ccc(-c3ccccn3)cc2)CN1C(=O)[C@@H](NC(=O)OC(C)(C)C)C(C)(C)C)C(=O)NS(=O)(=O)C1CC1 | 2 | 39 | –
14 | C=C[C@@H]1C[C@]1(NC(=O)[C@@H]1C[C@@](O)(c2ccc(Oc3ccccc3)cc2)CN1C(=O)[C@@H](NC(=O)OC(C)(C)C)C(C)(C)C)C(=O)NS(=O)(=O)C1CC1 | 50 | 265 | –
15 | C=C[C@@H]1C[C@]1(NC(=O)[C@@H]1C[C@@](O)(c2cc(C)cc(C)c2)CN1C(=O)[C@@H](NC(=O)OC(C)(C)C)C(C)(C)C)C(=O)NS(=O)(=O)C1CC1 | 80 | 6450 | –
16 | C=C[C@@H]1C[C@]1(NC(=O)[C@@H]1C[C@@](O)(c2cccc(Cl)c2)CN1C(=O)[C@@H](NC(=O)OC(C)(C)C)C(C)(C)C)C(=O)NS(=O)(=O)C1CC1 | 80 | 3660 | –

Row | Compound | IC50 [7] [nM] | EC50 (Hepatitis C virus) [nM] | also measured
17 | C=C[C@@H]1C[C@]1(NC(=O)[C@@H]1C[C@@](O)(c2cccc(CN3CCOCC3)c2)CN1C(=O)[C@@H](NC(=O)OC(C)(C)C)C(C)(C)C)C(=O)NS(=O)(=O)C1CC1 | 162 | 3460 | –
18 | C=C[C@@H]1C[C@]1(NC(=O)[C@@H]1C[C@@](O)(c2ccc(-c3ccccc3)cc2)CN1C(=O)[C@@H](NC(=O)OC(C)(C)C)C(C)(C)C)C(=O)NS(=O)(=O)C1CC1 | 4 | 22 to 26 | Papp [8]: 7.9 ×10⁻⁶ cm/s; Papp [9]: 21.1 ×10⁻⁶ cm/s; AUC at 4 h [10]: 0.9 µM·h; concentration at 4 h [11]: 128 ng/g; Activity (Heart [1]): -2%; Activity (Heart [2]): -4%; Activity (Heart [3]): 2%; Activity (Heart [4]): 7%; Activity (Heart [5]): 2%; Activity (Heart [6]): -2%
19 | C=C[C@@H]1C[C@]1(NC(=O)[C@@H]1C[C@@](O)(c2ccc(F)cc2)CN1C(=O)[C@@H](NC(=O)OC(C)(C)C)C(C)(C)C)C(=O)NS(=O)(=O)C1CC1 | 190 | 2470 | –
20 | C=C[C@@H]1C[C@]1(NC(=O)[C@@H]1C[C@@](O)(c2ccc(-n3cccc3)cc2)CN1C(=O)[C@@H](NC(=O)OC(C)(C)C)C(C)(C)C)C(=O)NS(=O)(=O)C1CC1 | 7 | 97 | –
21 | C=C[C@@H]1C[C@]1(NC(=O)[C@@H]1C[C@@](O)(c2cccc(N(C)C)c2)CN1C(=O)[C@@H](NC(=O)OC(C)(C)C)C(C)(C)C)C(=O)NS(=O)(=O)C1CC1 | 960 | 3400 | –
22 | C=C[C@@H]1C[C@]1(NC(=O)[C@@H]1C[C@@](O)(c2ccc(C)c(F)c2)CN1C(=O)[C@@H](NC(=O)OC(C)(C)C)C(C)(C)C)C(=O)NS(=O)(=O)C1CC1 | 568 | 4240 | –
23 | C=C[C@@H]1C[C@]1(NC(=O)[C@@H]1C[C@@](O)(c2nc3ccccc3s2)CN1C(=O)[C@@H](NC(=O)OC(C)(C)C)C(C)(C)C)C(=O)NS(=O)(=O)C1CC1 | 127 | 1120 | –
24 | C=C[C@@H]1C[C@]1(NC(=O)[C@@H]1C[C@@](O)(c2cccc(F)c2)CN1C(=O)[C@@H](NC(=O)OC(C)(C)C)C(C)(C)C)C(=O)NS(=O)(=O)C1CC1 | 57 | 4060 | –
25 | C=C[C@@H]1C[C@]1(NC(=O)[C@@H]1C[C@@](O)(c2ccc(-c3ccccc3OC)cc2)CN1C(=O)[C@@H](NC(=O)OC(C)(C)C)C(C)(C)C)C(=O)NS(=O)(=O)C1CC1 | 5 | 24 | –
26 | C=C[C@@H]1C[C@]1(NC(=O)[C@@H]1C[C@@](OC)(c2ccc(-c3ccccc3)cc2)CN1C(=O)[C@@H](NC(=O)OC(C)(C)C)C(C)(C)C)C(=O)NS(=O)(=O)C1CC1 | 2 | 9 | Papp [8]: 38.1 ×10⁻⁶ cm/s; Papp [9]: 43.8 ×10⁻⁶ cm/s; AUC at 4 h [10]: 2.45 µM·h; concentration at 4 h [11]: 195000 ng/g; bioavailability [12]: 58%; AUC at 24 h [13]: 14.1 µM·h; clearance [14]: 17.8 mL/min/kg; half-life [15]: 4.6 h; concentration at 24 h [16]: 1100 nM; Activity (Heart [1]): -6%; Activity (Heart [2]): -3%; Activity (Heart [3]): 8%; Activity (Heart [4]): 7%; Activity (Heart [5]): 27%; Activity (Heart [6]): 20%
27 | C=C[C@@H]1C[C@]1(NC(=O)[C@@H]1C[C@@](O)(c2ccccc2CN2CCOCC2)CN1C(=O)[C@@H](NC(=O)OC(C)(C)C)C(C)(C)C)C(=O)NS(=O)(=O)C1CC1 | 291 | 4950 | –
28 | C=CC[C@]1(O)C[C@@H](C(=O)N[C@]2(C(=O)NS(=O)(=O)C3CC3)C[C@H]2C=C)N(C(=O)[C@@H](NC(=O)OC(C)(C)C)C(C)(C)C)C1 | 1500 | 30500 | –
29 | C=C[C@@H]1C[C@]1(NC(=O)[C@@H]1C[C@@](O)(c2cccc(-c3ccc(OC)cc3)c2)CN1C(=O)[C@@H](NC(=O)OC(C)(C)C)C(C)(C)C)C(=O)NS(=O)(=O)C1CC1 | 620 | 3210 | –
30 | C=C[C@@H]1C[C@]1(NC(=O)[C@@H]1C[C@@](O)(c2ccccc2)CN1C(=O)[C@@H](NC(=O)OC(C)(C)C)C(C)(C)C)C(=O)NS(=O)(=O)C1CC1 | 140 | 2360 | –
31 | C=C[C@@H]1C[C@]1(NC(=O)[C@@H]1C[C@@](O)(c2cc(C)ccc2C)CN1C(=O)[C@@H](NC(=O)OC(C)(C)C)C(C)(C)C)C(=O)NS(=O)(=O)C1CC1 | 136 | 2310 | –
